Data on one compound can be found in patent US20240058308A1, “TREATMENT AND PREVENTION OF DRY MACULAR DEGENERATION” (The Regents of the University of Michigan, priority 2021, published 2024).

For data set [1], the system named is RPE from mouse eyecups. Description: Ex vivo mouse eyecup autophagy induction (LC3II/LC3I ratio). The conditions noted are these: 24 hours. The method, then: FIG. 14. Effect of autophagy positive control Torin on RPE from mouse eyecups (DMSO as control). […] Mouse eyes were enucleated, the anterior segment vitreous, and retina were removed, leaving an eyecup with RPE/choroid exposed. […] RPE/Choroid eyecup was treated with 1 uM Torin1 in our previously established RPE cell culture media for 24 hours. n=4.
FIG. 15. Effect of Flubendazole on RPE from Mouse Eyecups (DMSO as control). Conditions with and without ammonium chloride (NH4Cl) help establish high autophagy flux rates. If true autophagy flux is happening, the LC3II/LC3I ratio should increase further upon addition of NH4Cl, as is the case here. DMSO− and FLBZ−, n=6, FLBZ+ and DMSO+ n=5. Flubendazole tested at 60 uM, lysates collected after 24 hours. Induction did occur in eyecups.
Given the inconsistent results with detecting autophagy induction using intravitreal injection of the positive control, Torin, experiments were conducted to determine whether the lack of responsiveness to intravitreal injections was a drug access issue or whether it was a species or animal vs. culture difference. Additional experiments utilized freshly isolated mouse eyecups with the retina removed to determine whether Torin (and FLBZ) induce autophagy in this context. […] The use of ammonium chloride in these experiments blocks lysosomal degradation.

The test system of data set [2] is primary hfRPE culture.
Method: Phagocytosis assays using bovine outer segments was performed using the “pulse-only” method [Ref 43; incorporated by reference in its entirety]. Values at the zero-hour timepoint were used for normalization.
In data set [3] the test system is primary human fetal RPE (hfRPE) culture. Description: Autophagy induction by LC3 lipidation (LC3-II/LC3-I ratio) on Western blot. It is filed as cell-based. The conditions noted are these: 24 hours exposure, vs vehicle (DMSO). The method, then:
Cell cultures were exposed to each putative autophagy inducer at a concentration indicated in Table 1 for 24 hours, lysed with 36 μL of SDS sample buffer with β-mercaptoethanol, with 15 μg of lysate loaded on a 4-15% gradient gel followed by transfer to a PVDF membrane. Blots were incubated with 1:1000 of LC3A/B antibody (Cell Signaling Technology; #4108s, RRID:AB_2137703) overnight. Quantifying LC3-II/LC3-I ratio is a well-accepted method for det 306 ermining autophagy induction [Ref. 44; incorporated by reference in its entirety], and this ratio was quantified in a non-saturated, linear range using the Azure c500 Imaging System (Azure Biosystems, Dublin, CA, USA) and a combination of AzureSpot and ImageJ software. The data in FIG. 2A are not normalized, whereas the data in FIGS. 2b and 1c are normalized to the average combined value of the vehicle and drug groups within each experimental repeat. The extreme pigmentation of human fetal cultures, combined with the destruction of the LC3 epitope with melanin bleaching protocols, makes detection of LC3 by microscopy in hfRPE difficult. A range of LC3 staining and puncta quantification protocols specifically adapted to pigmented hfRPE culture were employed [Ref. 43; incorporated by reference in its entirety]. At least five fields of view were randomly chosen and analyzed per experimental replicate for LC3 immunocytochemistry.
To test for autophagy induction, lipidation of the core autophagy protein LC3 was measured by mobility shift on Western blots 24 hours after each compound was added to hfRPE cultures [Ref. 44; incorporated by reference in its entirety]. […] Of the more than 30 putative autophagy inducers tested, only five produced an increased ratio of LC3-II/LC3-I, consistent with increased autophagy (FIG. 2a).
Autophagy induction was measured by LC3-II/LC3-I Ratios on Western Blot (standard method for autophagy induction) (FIG. 18A-C). Drugs were applied to primary human RPE culture for 24 hours.

In data set [4] the test system is hfRPE. It is filed as cell-based, human. The method, then: Whole mounted Transwells (in duplicate) are photographed.
To evaluate the safety of D4476 and FLBZ, trans-epithelial electrical resistance (TEER) was measured, a measure of tight-junction integrity, in RPE cultures after prolonged exposure to each compound. As well-formed tight-junctions require myriad cell processes to be optimally coordinated, assessing TEER provides an easily measurable, ongoing, and noninvasive marker for general RPE cell health [Ref. 45; incorporated by reference in its entirety]. […] Lactate dehydrogenase (LDH) release, a combined marker of necrotic and late-stage apoptotic cell death [Refs. 47,48; incorporated by reference in their entireties], was reduced compared to vehicle for all four verified RPE autophagy inducers (FIG. 3b). Exposure of RPE cultures to the oxidant tert-butyl hydroperoxide confirmed the ability of the assay to detect cell death (FIG. 10).

Data set [5] relates to primary RPE cultures. Description: Ketone body production (β-hydroxybutyrate, β-HB) fluorometric assay. It is filed as cell-based, human. The conditions noted are these: 24 hours, apical supernate. The method, then: (§1) After 24 hours of exposure to drugs, supernates were collected and subjected to western blotting for APOE detection and a fluorometric assay for β-HB detection [Ref 51; incorporated by reference in its entirety]. Twenty microliters of apical and basolateral supernates for APOE were mixed with SDS sample buffer and blotted with antibody at a dilution of 1:2000. APOE and β-HB values were normalized to the average value of the vehicle and experimental group within each experimental repeat.
(§2) The RPE handles an enormous lipid burden on a daily basis, including OS ingestion from its apical side and lipoprotein particle absorption from its basolateral side. Rather than storing excess lipid, the RPE may choose to degrade or secrete surplus lipids (FIG. 4a). A marker of lipid degradation is the production of KBs, which are secreted by the RPE apically and serve as an energy source for photoreceptors [Refs. 7,8; incorporated by reference in their entireties]. A marker of lipid secretion is the production of the lipoprotein APOE, which is a major component of drusen [Ref. 50; incorporated by reference in its entirety]. It was contemplated that autophagy inducers promote ketogenesis through degradation of ingested lipids, reducing the stimulus for secretion of drusen-promoting APOE.

Data set [6] concerns primary RPE cultures. Description: APOE secretion by western blotting of supernates. The conditions noted are these: 24 hours. Format: cell-based, human. The method, then: as §1, §2
In general terms: A western blot detects proteins with antibodies after separation by electrophoresis.

The test system of data set [7] is primary hfRPE culture. The data set is described as follows: UAM-induced senescence (β-galactosidase activity). Format: cell-based, human. The source says:
FIG. 6. FLBZ alleviates UAM-induced senescence and tight-junction disruption. (A) (Top) FLBZ reduces senescence when fed concurrently with oxOS during UAM accumulation. (Bottom) FLBZ is unable to reverse established senescence induced by already accumulated UAM. FLBZ is fed daily together with oxOS for 20 days in a month (top) or after one month of 20 oxOS feedings to induce UAM buildup (bottom). DMSO as vehicle control. Senescence measured by β-galactosidase activity (blue). Scale bar: 50 μm. n=6. […] Left graph n=6, right graph n=12. ns p>0.05, *p<0.05, ***p<0.001.
UAM accumulation and quantification as well as assays on senescence were carried out [Ref. 51; incorporated by reference in its entirety]. UAM granule size was measured with Leica LAS X software using the length of the long axis of the granule ellipse.

Take `COC(=O)Nc1nc2cc(C(=O)c3ccc(F)cc3)ccc2[nH]1` [FLBZ, Flubendazole]: the “Autophagy induction in eyecups (LC3II/LC3I ratio)” value in data set [1] (mouse RPE/choroid eyecup, Torin 1-5 uM, FLBZ 12-60 uM) is recorded as “induces autophagy well”. Also, in data set [1] (mouse eyecups, FLBZ 60 uM), the “Autophagy flux in eyecups: LC3-II/LC3-I ratio with vs without ammonium chloride” value is listed as “higher LC3-II/LC3-I ratio with ammonium chloride than without ammonium chloride”. Further, in data set [2], the “OS phagocytosis efficiency / OS degradative capacity” value was “no effect on OS degradative capacity”. The “LC3-II/LC3-I ratio (autophagy induction)” value in data set [3] is on record as “Induction of autophagy”. In addition, the RPE pigmentation entry in data set [4] is “preserved pigmentation”. In data set [5], the “β-hydroxybutyrate (β-HB) production” value is “increased production”. In addition, the “APOE secretion, apical and basolateral” value in data set [6] was “reduced the apical and basolateral secretion of APOE”. Further, in data set [7] (drug fed after one month of 20 oxOS feedings), the “Senescence, drug after UAM had accumulated” value was “cell senescence was not decreased”. Besides, the “Senescence, drug cofed with oxOS” value in data set [7] (fed daily together with oxOS for 20 days in a month, vs vehicle) is reported as “less senescence”.
